In ChEMBL document CHEMBL1201862, “PubChem BioAssay data set” (2004):
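The compound was tested at five concentrations on cells cultured in 96-well plates, with a 48-hour exposure period. Here, GI50 denotes the concentration required for 50% inhibition of growth.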 Active and inactive are the calls of the source. Cut-off read from the data, not from the text of the source: active = GI50 up to about 1.1 µM and inactive = higher.

Legend:
Test in all cases: DTP human tumour cell line panel, 48 h
SNB-19 = test system: SNB-19
A498 = test system: A498
ACHN = test system: ACHN
SW-620 = test system: SW-620
M14 = test system: M14
SN12C = test system: SN12C
UACC-62 = test system: UACC-62
NCI-H226 = test system: NCI-H226
Malme-3M = test system: Malme-3M
SK-MEL-5 = test system: SK-MEL-5
CCRF-CEM = test system: CCRF-CEM
A549 = test system: A549
IGROV-1 = test system: IGROV-1
DMS-114 = test system: DMS-114
SK-MEL-2 = test system: SK-MEL-2
786-0 = test system: 786-0
SK-MEL-28 = test system: SK-MEL-28

Compound	GI50 (SNB-19)	GI50 (A498)	GI50 (ACHN)	GI50 (SW-620)	GI50 (M14)	GI50 (SN12C)	GI50 (UACC-62)	GI50 (NCI-H226)	GI50 (Malme-3M)	GI50 (SK-MEL-5)	GI50 (CCRF-CEM)	GI50 (A549)	GI50 (IGROV-1)	GI50 (DMS-114)	GI50 (SK-MEL-2)	GI50 (786-0)	GI50 (SK-MEL-28)
COc1ccc(C(=O)Cc2ccc(Br)cc2)cc1OC	> 100 µM (inactive)	40.4 µM (inactive)	> 100 µM (inactive)	> 100 µM (inactive)	> 100 µM (inactive)	> 100 µM (inactive)	> 100 µM (inactive)	> 100 µM (inactive)	> 100 µM (inactive)	> 100 µM (inactive)	> 100 µM (inactive)	> 100 µM (inactive)	> 100 µM (inactive)	> 100 µM (inactive)	> 100 µM (inactive)	–	–
O=C1CN=C(c2ccccc2)c2ccncc2N1	> 100 µM (inactive)	> 100 µM (inactive)	> 100 µM (inactive)	> 100 µM (inactive)	> 100 µM (inactive)	> 100 µM (inactive)	> 100 µM (inactive)	> 100 µM (inactive)	> 100 µM (inactive)	> 100 µM (inactive)	> 100 µM (inactive)	> 100 µM (inactive)	> 100 µM (inactive)	> 100 µM (inactive)	> 100 µM (inactive)	> 100 µM (inactive)	> 100 µM (inactive)
COc1ccc(-c2nc(Sc3c([N+](=O)[O-])ncn3C)n[nH]2)cc1	13 µM (inactive)	10.5 µM (inactive)	3.61 µM (inactive)	3.26 µM (inactive)	2.17 µM (inactive)	2.64 µM (inactive)	3.08 µM (inactive)	13.4 µM (inactive)	2.6 µM (inactive)	2.65 µM (inactive)	2.89 µM (inactive)	12.4 µM (inactive)	4.12 µM (inactive)	2.41 µM (inactive)	2.25 µM (inactive)	3.27 µM (inactive)	4.21 µM (inactive)
C/C(=N\O)C(CN(C)C)C(c1ccccc1)c1c(O)c2ccccc2oc1=O (stereo not drawn)	> 100 µM (inactive)	> 100 µM (inactive)	–	> 100 µM (inactive)	> 100 µM (inactive)	> 100 µM (inactive)	> 100 µM (inactive)	> 100 µM (inactive)	> 100 µM (inactive)	> 100 µM (inactive)	> 100 µM (inactive)	> 100 µM (inactive)	> 100 µM (inactive)	> 100 µM (inactive)	> 100 µM (inactive)	> 100 µM (inactive)	> 100 µM (inactive)
CN(c1ccccc1)c1nc(=[N+]2CCCC2)ss1.[O-][Cl+3]([O-])([O-])[O-]	> 100 µM (inactive)	> 100 µM (inactive)	> 100 µM (inactive)	> 100 µM (inactive)	> 100 µM (inactive)	> 100 µM (inactive)	> 100 µM (inactive)	> 100 µM (inactive)	> 100 µM (inactive)	> 100 µM (inactive)	> 100 µM (inactive)	> 100 µM (inactive)	> 100 µM (inactive)	7.66 µM (inactive)	> 100 µM (inactive)	6.5 µM (inactive)	> 100 µM (inactive)
Cc1cc(C)nc(NS(=O)(=O)c2ccc(NC(=O)COC(=O)c3cccc4c(=O)c5ccccc5[nH]c34)cc2)n1	26.8 µM (inactive)	30.3 µM (inactive)	47.5 µM (inactive)	31.8 µM (inactive)	56 µM (inactive)	40.4 µM (inactive)	19.5 µM (inactive)	53.3 µM (inactive)	26.7 µM (inactive)	40.6 µM (inactive)	34.3 µM (inactive)	> 100 µM (inactive)	43.5 µM (inactive)	56.5 µM (inactive)	–	19.1 µM (inactive)	31.7 µM (inactive)
CN(C)C(=N)NC(=S)N(C)C	> 100 µM (inactive)	> 100 µM (inactive)	> 100 µM (inactive)	> 100 µM (inactive)	> 100 µM (inactive)	> 100 µM (inactive)	> 100 µM (inactive)	17.2 µM (inactive)	> 100 µM (inactive)	> 100 µM (inactive)	> 100 µM (inactive)	> 100 µM (inactive)	> 100 µM (inactive)	> 100 µM (inactive)	> 100 µM (inactive)	> 100 µM (inactive)	> 100 µM (inactive)
c1ccc2c(c1)[nH]c1c2ncc2[nH]c3ccccc3c21	2.94 µM (inactive)	2.72 µM (inactive)	4.24 µM (inactive)	2.9 µM (inactive)	2.75 µM (inactive)	3.51 µM (inactive)	1.76 µM (inactive)	14 µM (inactive)	19.4 µM (inactive)	5.48 µM (inactive)	3.03 µM (inactive)	4.65 µM (inactive)	5.19 µM (inactive)	2.44 µM (inactive)	7.29 µM (inactive)	2.32 µM (inactive)	11.7 µM (inactive)
O=C1CCCCCCCCCCC1CN1CCCCC1 (stereo not drawn)	> 100 µM (inactive)	> 100 µM (inactive)	> 100 µM (inactive)	> 100 µM (inactive)	> 10 µM (inactive)	> 100 µM (inactive)	88.9 µM (inactive)	28.2 µM (inactive)	> 100 µM (inactive)	15 µM (inactive)	66.8 µM (inactive)	> 100 µM (inactive)	74.3 µM (inactive)	60.5 µM (inactive)	> 100 µM (inactive)	> 100 µM (inactive)	41.6 µM (inactive)
CC(=O)OC1CC[C@@]2(C)C(CC(OC3OC(CO)C(O)C(O)C3O)[C@]3(C)C2CCC24CC23CC[C@H]4C(C)CC(O)[C@@H](O)C(C)(C)O)C1(C)C (stereo partly drawn)	14.2 µM (inactive)	16.8 µM (inactive)	> 50 µM (inactive)	16.6 µM (inactive)	12 µM (inactive)	12.7 µM (inactive)	9.2 µM (inactive)	17 µM (inactive)	9.51 µM (inactive)	8.93 µM (inactive)	11.4 µM (inactive)	> 50 µM (inactive)	11.5 µM (inactive)	10.8 µM (inactive)	10.3 µM (inactive)	13.1 µM (inactive)	9.77 µM (inactive)
CCOC(=O)[C@H]1Nc2ccc(C)cc2C2c3ccccc3CC21 (stereo partly drawn)	> 100 µM (inactive)	33.4 µM (inactive)	> 100 µM (inactive)	> 100 µM (inactive)	> 100 µM (inactive)	> 100 µM (inactive)	> 100 µM (inactive)	> 100 µM (inactive)	> 100 µM (inactive)	> 100 µM (inactive)	–	> 100 µM (inactive)	> 100 µM (inactive)	> 100 µM (inactive)	> 100 µM (inactive)	> 100 µM (inactive)	> 100 µM (inactive)
Nc1cc[nH]c(=O)n1	–	> 100 µM (inactive)	> 100 µM (inactive)	> 100 µM (inactive)	> 100 µM (inactive)	> 100 µM (inactive)	> 100 µM (inactive)	> 100 µM (inactive)	> 100 µM (inactive)	> 100 µM (inactive)	> 100 µM (inactive)	> 100 µM (inactive)	> 100 µM (inactive)	> 100 µM (inactive)	> 100 µM (inactive)	> 100 µM (inactive)	> 100 µM (inactive)
O=S1(=O)C[C@@H](O)[C@H](O)CS1	> 100 µM (inactive)	> 100 µM (inactive)	> 100 µM (inactive)	> 100 µM (inactive)	> 100 µM (inactive)	> 100 µM (inactive)	> 100 µM (inactive)	> 100 µM (inactive)	> 100 µM (inactive)	> 100 µM (inactive)	–	> 100 µM (inactive)	> 100 µM (inactive)	> 100 µM (inactive)	–	> 100 µM (inactive)	> 100 µM (inactive)
Clc1ccc(Cl)c2[s+]snc12	> 93.5 µM (inactive)	> 100 µM (inactive)	> 79.1 µM (inactive)	23.6 µM (inactive)	55.6 µM (inactive)	> 79.3 µM (inactive)	43.4 µM (inactive)	> 100 µM (inactive)	> 49.5 µM (inactive)	76 µM (inactive)	50.8 µM (inactive)	> 100 µM (inactive)	> 100 µM (inactive)	24.9 µM (inactive)	–	> 40.9 µM (inactive)	> 100 µM (inactive)
C/C(=N/Nc1ccc([N+](=O)[O-])cc1[N+](=O)[O-])C(CC(C(=O)NCc1ccccc1)/C(C)=N\Nc1ccc([N+](=O)[O-])cc1[N+](=O)[O-])C(=O)NCc1ccccc1 (stereo not drawn)	15.2 µM (inactive)	14.8 µM (inactive)	5.46 µM (inactive)	10.8 µM (inactive)	8.04 µM (inactive)	4.05 µM (inactive)	11.7 µM (inactive)	11.2 µM (inactive)	12.2 µM (inactive)	–	–	4.4 µM (inactive)	13.7 µM (inactive)	9.91 µM (inactive)	10.1 µM (inactive)	3.24 µM (inactive)	7.8 µM (inactive)
N#COc1ccc(Oc2ccc(OC#N)cc2)cc1	> 100 µM (inactive)	> 100 µM (inactive)	35.5 µM (inactive)	–	> 100 µM (inactive)	55.5 µM (inactive)	47.1 µM (inactive)	> 100 µM (inactive)	> 100 µM (inactive)	> 100 µM (inactive)	22.5 µM (inactive)	> 100 µM (inactive)	> 100 µM (inactive)	32.1 µM (inactive)	> 100 µM (inactive)	39.1 µM (inactive)	> 100 µM (inactive)
N#CC1=C(c2ccccc2)NNC(c2ccc(Cl)cc2)CC1=O (stereo not drawn)	53.2 µM (inactive)	68.7 µM (inactive)	49.2 µM (inactive)	33.5 µM (inactive)	25.6 µM (inactive)	45.5 µM (inactive)	–	0.165 µM (active)	32.4 µM (inactive)	20.9 µM (inactive)	–	39.9 µM (inactive)	–	82.2 µM (inactive)	29.4 µM (inactive)	–	91.4 µM (inactive)
